Results published in patent publication US20060286626A1, “Selective chromophores” (priority 2002, published 2006).
Entries after “also recorded” stand apart in the source; their conditions may differ.

What was measured:
Format in all cases: cell-based
[1] = system: sections of testis from rat; test: Fluorescent staining of testis sections from rat; settings: for concentration dependence of staining in testis: 0.05-50 μg/ml; for cells stained / affinity in testis: 15 minutes incubation, concentration not given
Description: Testis tissues were obtained from a male Sprague-Dawley rat, which has been used as a control in another study. The tissues were fixed in 4% formaldehyde, imbedded in paraffin and sectioned into 4 μm thick slices before dewaxed and hydrated. Stock solutions containing 5 mg dye/ml DMSO and ethanol were made. These were diluted to 0.05, 0.5, 5, 10, and 50 μg/ml with water. At the time of the experiment, 100 μl from each solution was added to the sections, respectively. The sections were incubated for 15 minutes before the excess dye was removed by washing with water.
To se if and if so, the position of benzosuccinimidyl as a substituent alters the affinity of the dyes testis was stained with the two PASU dyes.
(§1) Fluorescence microscopic experiments were performed with a Zeizz (West Germany) microscope equipped with Plan Neofuar 40/0.9 I mm Ph3 and Plan Neofuar 25/0.8 W-Oel Ph2 objectives. A Winder M35 camera was used to obtain the microscopic images.

[2] = system: small intestine sections from rats; test: Fluorescent staining of small intestine sections from rat
Description: Derivatives of Nile Red (FIG. 1) were synthesized and their staining of testis and small intestine sections from rats were studied. Nile Red is a member of benzophenoxazine compounds that provide a family of fluorescent dyes, which can be used, for labelling biological molecules in various applications. The phenoxazine dyes tend to have a large Stokes' shift of 80-100 nm. Nile Red is a highly fluorescent dye, which absorbs energy above 550 nm. Consequently it has mainly been used for lipid staining but also as a solvatrochromic probe to measure the solvent strength of several liquids.
as §1

[3] = system: human cell line of fibro sarcom, HT80; test: Staining of human fibro sarcoma cells; settings: live HT80 cells, 5 μg/ml, without Triton-x
Description: The positively charged part of the molecule might bind to the anionic phosphate group of phospholipids present in the plasma membrane. Since the PASU dyes are uncharged and relatively small molecules they have the ability to pass through the outer layer of the cells. […] To answer the question of what the dyes have affinity for further investigations have to be performed. Furthermore the dyes can be used for detection of receptors of cells. […] By adding a substance that induce conformational changes of the receptor which result in that the dye fit to the receptor, or use a dye with a substituent that fit in the inactivated receptor, the targets, receptors, can be detected as small fluorescent particles, so called pits. Thus, the dyes can be used to detect receptors and follow conformational changes of the receptor, activation-inactivation of receptor.
The stock solutions of the dyes were diluted with PBS or PBS+Triton-x to 5 μg/ml when added to both fixed and unfixed mature fibro sarcoma cells, cell line HT 80. Due to lack of time only the live cells untreated with Triton-x are discussed in the result.

Row | Structure (SMILES) | concentration dependence of staining in testis [1] | cells stained / affinity in testis [1] | part of the cell stained [3] | also measured
1 | CN(C)c1ccc2nc3c4cc(OCCCN)ccc4c(=O)cc-3oc2c1 [PA-2, 2-(3-Amino-propoxy)-9-dimethylamino-benzo[a]phenoxazine-5-one] | the concentration of the dye added to the tissue determined which cells that were stained | stains stem cells selectively; also recorded: stains stem cells and spermatocytes; also recorded: high affinity for stem cells and spermatocytes; also recorded: has affinity for stem cells at low concentrations |  | cells stained in testis ([1]; dye 0.05 μg/ml): only stem cells were stained; cells stained in testis ([1]; dye 0.5 μg/ml): germ cells and spermatides fluoresced as well; cells stained in testis ([1]; dye 10 μg/ml): spermatocytes were stained as well; structures stained in small intestine ([2]; slices of small intestine from rat): all nucleuses
2 | CN(C)c1ccc2nc3c4cc(OCCCN5C(=O)c6ccccc6C5=O)ccc4c(=O)cc-3oc2c1 [PASU-1, 1-[3-(9-Dimethylamino-5-oxo-5H-benzo[a]phenoxazine-2-yloxy)-propyl]-isoindole-1,3-dione] |  | does not have any affinity |  | 
3 | CN(C)c1ccc2nc3c4cc(OCCCN5C(=O)c6ccccc6C5=O)ccc4c(=O)cc-3oc2c1 [PASU-2, 2-[3-(9-Dimethylamino-5-oxo-5H-benzo[a]phenoxazine-2-yloxy)-propyl]-isoindole-1,3-dione] |  | stains spermatides and spermatozoa; also recorded: stain different cells and parts of cells; also recorded: has preferences to sperms and spermatides; also recorded: binds to spermatides and spermatozoa | stains the cytoplasm but not the nucleus | concentration dependence of staining in small intestine ([2]; small intestine from rat): differs a lot with the concentration of dye
4 | CN(C)c1ccc2nc3c4cc(OCCCN5C(=O)c6ccccc6C5=O)ccc4c(=O)cc-3oc2c1 [PASU-3, 3-[3-(9-Dimethylamino-5-oxo-5H-benzo[a]phenoxazine-2-yloxy)-propyl]-isoindole-1,3-dione] |  | stain different cells and parts of cells; also recorded: stains stem cells but not spermatides and spermatozoa |  | 
5 | CN(C)c1ccc2nc3c4cc(OCCC[N+](C)(C)C)ccc4c(=O)cc-3oc2c1 [PATM-2, 9-Dimethylamino-2-(trimethylammonium-propoxy)-benzo[a]phenoxazin-5-one] | no concentration dependence | stains germ cells | stains the plasma membranes of the cells | permeability of the plasma membrane [3]: does not reach into the cytoplasm of the cells
